Results as given in patent US6773708B1, “Use of xanthophylls, astaxanthin e.g., for treatment of autoimmune diseases, chronic viral and intracellular bacterial infections” (AstaReal AB, priority 1999, dated 2004).

Tested on: Lichen Ruber Planus
Test: Case study: patient with Lichen ruber planus
Type: in vivo, human
Settings: Patient 4; several years, orally and by injection to local inflammation areas
Protocol: During the last five years reports have been received from patients taking the commercial dietary supplement capsules of the algal meal of Haematococcus pluvialis, Astaxin®, containing 4 mg astaxanthin. The daily doses recommended as an antioxidant is one capsule per day.
Patient 4. […] The symptoms of the disease were inter alia open wounds which had not healed […] had been treated with anti-inflammatory agents, such as cortisone, for several years, orally and also by injection directly to the local inflammation areas. […] They started to take 4 capsules of Astaxin per day, and after some weeks visible alleviation of the symptoms started to show up. […] During this period, the patient […] phased out the cortisone treatment. The dose of Astaxin was lowered to 2 capsules per day when they were asymtomatic. However, the symptoms returned in connection with a common cold.

C[C@]12CCC(=O)C=C1CC[C@@H]1[C@@H]2C(=O)C[C@@]2(C)[C@H]1CC[C@]2(O)C(=O)CO [cortisone]
result of previous anti-inflammatory treatment: has not led to any result
